Patent US20230372364A1, “METHOD OF TREATING GABA MEDIATED DISORDERS” (Eliem Therapeutics (UK) Ltd, priority 2020, published 2023)
Like-named read-outs stand apart in the source and are kept apart here.

Experiments:
[1] = tested on: rodent model of depression; assay: Forced swim test - Depression; format: in vivo; details: all doses listed in the cell
human subjects = details: cited from earlier work
[2] = human, cited from earlier work
[3] = human, cited from earlier work; remark: listed apart in the source
[4] = 30 mg, day 7 MAD (MTD), morning dosing

## C[C@@]1(O)CC[C@H]2[C@H](CC[C@@H]3[C@@H]2CC[C@]2(C)[C@@H](C(=O)Cn4cc(C#N)cn4)CC[C@@H]32)C1 [Sage-217, zuranolone]
[1]
  Doses in Forced swim test - Depression, * = significantly efficacious dose: 1 - 3* mg/kg
Human subjects; 20 mg, n-188
  Any adverse event, (%): (50.0) %
  Diarrhea, (%): (5.9) %
  Dizziness, (%): (7.4) %
  Fatigue, (%): (1.6) %
  Headache, (%): (11.2) %
  Nausea, (%): (5.3) %
  Sedation, (%): (5.9) %
  Somnolence, (%): (5.9) %
Human subjects; 30 mg, n-192
  Any adverse event, (%): (54.2) %
  Diarrhea, (%): (6.3) %
  Dizziness, (%): (5.7) %
  Fatigue, (%): (6.8) %
  Headache, (%): (6.3) %
  Nausea, (%): (3.6) %
  Sedation, (%): (4.7) %
  Somnolence, (%): (6.8) %
[2]; 55 mg SAD MTD
  Tmax: 1.24 h
[2]; single ascending dose
  SAD MTD: SAGE-217 55 mg SAD MTD
[3]; 30 mg daily in the evening in a fed state
  ratio of Cmax/trough on day 7: 5.88
[3]; [4]
  AUC0-inf: 833.2 ng·h/mL
  Cmin: 12.46 ng/mL
  Ratio (Cmax/Cmin): 9.24
[3]; multiple ascending dose
  MAD MTD: SAGE-217 30 mg
